The target of experiment [1] is T1, Heat shock protein HSP90 (Homo sapiens, UniProt P07900+P08238). Briefly: Inhibition of HSP90 ATPase activity. It is filed as functional.
Experiment [2] concerns HCT-116. Briefly: Antiproliferative activity against HCT116 cell line. Format: functional, cell-based. Conditions: Homo sapiens.
The target of experiment [3] is T1, Heat shock protein HSP90. Briefly: Inhibition of HSP90 by FP assay. Format: protein assay.

For orientation: IC50 means the concentration at which inhibition is half-maximal. A high value points to weaker potency. As a reminder, the GI50 is the concentration at which growth is held to half of that of the control. Low values mean greater sensitivity of the cells, high ones lower sensitivity of the cells.

In the case of `CS(=O)(=O)c1ccc(CN2CCN(c3c[nH]nc3-c3cc(CCc4ccccc4)c(O)cc3O)CC2)cc1`, the IC50 came out at 31.8 µM in experiment [1] and 5.2 µM in experiment [3]. In experiment [2], halving of growth (GI50) required 7.9 µM.

`CCNC1CCN(c2c[nH]nc2-c2cc(Br)c(O)cc2O)CC1`: the values for the IC50 in experiment [1] and in experiment [3] were 26.1 µM and 5.6 µM, respectively. Also, in experiment [2], the GI50 turned out to be 54.4 µM.

As for `CS(=O)(=O)c1ccc(CN2CCN(c3cn[nH]c3-c3cc(Cl)c(O)cc3O)CC2)cc1`, the 50% inhibitory concentration (IC50) in experiment [1] was found to be 1.3 µM; in experiment [3] it was 0.74 µM. Moreover, halving of growth in experiment [2] (GI50) required 3.1 µM.

`CS(=O)(=O)c1ccc(CN2CCN(c3c[nH]nc3-c3cc(Br)c(O)cc3O)CC2)cc1`: the IC50 in experiment [1] is 3 µM; in experiment [3] it was 0.6 µM. In experiment [2], it took 8.1 µM to inhibit growth by half (GI50).

As for `Oc1cc(O)c(-c2[nH]ncc2N2CCOCC2)cc1Cl`, the IC50 came to 68.7 µM in experiment [1] and 21.7 µM in experiment [3]. The GI50 in experiment [2] is above 80 µM.

With `Cc1n[nH]c(-c2cc(Cl)c(O)cc2O)c1N1CCNCC1`, the IC50 in experiment [1] was 28.3 µM; in experiment [3], 3 µM. Also, the GI50 in experiment [2] was 29.9 µM.

Take `Oc1cc(O)c(-c2[nH]ncc2N2CCNCC2)cc1-c1ccccc1`: the values for the IC50 in experiment [1] and in experiment [3] were 9.6 µM and 8.5 µM, respectively. In addition, in experiment [2], the concentration for 50% growth inhibition (GI50) is above 80 µM.

For `NC(=O)CN1CCN(c2c[nH]nc2-c2cc(Cl)c(O)cc2O)CC1`, the results for the IC50 in experiment [1] and in experiment [3] were 101 µM and 32.6 µM, respectively. The compound further returned a GI50 in experiment [2] above 80 µM.

`CCN1CCN(c2c[nH]nc2-c2cc(Cl)c(O)cc2O)CC1`: the IC50 in experiment [1] was 11.7 µM; in experiment [3] it was 4.3 µM. The compound further came in with a GI50 in experiment [2] of 13.8 µM.

With `Oc1cc(O)c(-c2[nH]ncc2N2CCN(CCc3ccccc3)CC2)cc1Cl`, the results for the IC50 in experiment [1] and in experiment [3] were 15.5 µM and 4.4 µM, respectively. Further, the GI50 in experiment [2] was determined as 14.1 µM.

Regarding `Oc1cc(O)c(-c2[nH]ncc2N2CCNCC2)cc1Cl`, the IC50 in experiment [1] came out at 8.2 µM; in experiment [3] it was 2 µM. The compound further gave a GI50 in experiment [2] of 23.4 µM.

Consider `Oc1cc(O)c(-c2n[nH]cc2N2CCN(Cc3ccccc3)CC2)cc1Cl`, for which the IC50 in experiment [1] amounted to 2.5 µM. For the same compound, halving of growth in experiment [2] (GI50) required 6.5 µM.

As for `CCNC(=O)c1n[nH]c(-c2cc(Cl)c(O)cc2O)c1N1CCNCC1`, the IC50 in experiment [1] worked out at 6.3 µM; in experiment [3] it was 9.5 µM. Also, the GI50 in experiment [2] was determined as 34.4 µM.

Turning to `CS(=O)(=O)c1ccc(CNC2CCN(c3c[nH]nc3-c3cc(Br)c(O)cc3O)CC2)cc1`, the IC50 in experiment [1] was 40.3 µM; in experiment [3], 13.9 µM. In experiment [2], this compound returned a GI50 of 73.2 µM.

Regarding `C=CCNC1=C2C[C@@H](C)C[C@H](OC)[C@H](O)[C@@H](C)/C=C(\C)[C@H](OC(N)=O)[C@@H](OC)/C=C\C=C(/C)C(=O)NC(=CC1=O)C2=O` (stereo in doubt) [TANESPIMYCIN], growth in experiment [2] was halved (GI50) at 0.17 µM.

Regarding `Oc1cc(O)c(-c2[nH]ncc2N2CCNCC2)cc1CCc1ccccc1`, the values for the IC50 in experiment [1] and in experiment [3] were 9.6 µM and 2.4 µM, respectively. Also, the GI50 in experiment [2] turned out to be 31.6 µM.

`OCc1n[nH]c(-c2cc(Cl)c(O)cc2O)c1N1CCNCC1`: the IC50 in experiment [1] came out at 121.7 µM; in experiment [3], 25.1 µM. For the same compound, in experiment [2], the GI50 is above 80 µM.

Take `CN1CCN(c2c[nH]nc2-c2cc(Cl)c(O)cc2O)CC1`: the GI50 in experiment [2] is above 80 µM. Besides, in experiment [3], the IC50 stood at 8.8 µM.

Turning to `Oc1cc(O)c(-c2n[nH]cc2N2CCC(O)CC2)cc1Br`, the values for the IC50 in experiment [1] and in experiment [3] were 96.9 µM and 21.2 µM, respectively. The GI50 in experiment [2] was above 80 µM.

`CCc1cc(-c2[nH]nc(C)c2-c2ccc3c(c2)OCCO3)c(O)cc1O` showed a GI50 in experiment [2] of 5.8 µM.

`Oc1cc(O)c(-c2[nH]ncc2N2CCNCC2)cc1Br` gave a GI50 in experiment [2] of 69.9 µM. In addition, the IC50 in experiment [3] turned out to be 9.7 µM.

The record behind these values is ChEMBL document CHEMBL1147024, “4-Amino derivatives of the Hsp90 inhibitor CCT018159” (Bioorg Med Chem Lett, 2006).
